Assays:
Aphidius rhopalosiphi = conditions: acute; duration: 7 days; mortality
Apis mellifera = conditions: acute; duration: 48 hours; oral; unspecified; mortality
Canidae = conditions: subchronic; duration: 90 days; oral; Dog Other; body weight
Chrysoperla externa = conditions: not reported; mortality
Colinus virginianus = conditions: oral
Daphnia magna = conditions: chronic/long-term; duration: 21 days; reproduction
Rattus norvegicus = conditions: for NOAEL: chronic
Tagia sp. = conditions: acute; mortality
[1] = short-term, oral, feed, mortality

In the case of CCS(=O)(=O)c1cccnc1S(=O)(=O)NC(=O)Nc1nc(OC)cc(OC)n1 [Rimsulfuron], the LD50 (Anas platyrhynchos; acute, oral, unspecified, mortality) is reported as > 2250 mg/kg, the NOAEL (Anas platyrhynchos; reproductive) is reported as 1250 mg/kg and the NOEC (Anas platyrhynchos; short-term, oral, feed) is reported as 5620 mg/kg. For the same compound, the LC50 (Anas platyrhynchos; [1]) was > 5620 mg/kg, the LD50 (Anas platyrhynchos; [1]) was > 1610 mg/kg-day and the LEL (Aphidius rhopalosiphi) was < 37.5 g/ha. The LD50 (Apis mellifera) was > 100 µg/piece, the NOAEL (Canidae) was 9.63 mg/kg-day and the LEL (Chrysoperla externa) was 37500 g/ha. For the same compound, the LC50 (Colinus virginianus; acute, diet, mortality) was > 5620 mg/kg, the LD50 (Colinus virginianus; acute, mortality) was > 2250 mg/kg and the NOEC (Colinus virginianus; short-term, diet) was 5620 mg/kg-day. The NOEC (Daphnia magna) was 1 mg/L, the LC50 (Oncorhynchus mykiss; acute, duration: 96 hours, mortality) was > 390 µg/mL and the NOEC (Oncorhynchus mykiss; chronic/long-term, duration: 21 days, growth) was 125 mg/L. For the same compound, the LD50 (Rattus norvegicus; acute, oral, mortality) was > 5000 mg/kg, the NOAEL (Rattus norvegicus) was 3000 mg/kg-day and the NOAEL (Rattus norvegicus; duration: 2 years, oral, body weight) was 11.8 mg/kg-day. For the same compound, the LC50 (Tagia sp.) was > 1000 mg/kg.

From EPA's ToxValDB 9.5 (doi:10.2903/j.efsa.2005.45r)
